According to patent US20260248762A1, “RRX-001 FOR […]-INFARCT ADVERSE V[…] COMPLICATIONS” (EpicentRx, Inc., priority 2022, published 2026):

Legend:
Male Wistar rats [1] = experiment: Acute changes in heart rate during reperfusion, rat myocardial ischemia reperfusion; type: in vivo; settings: infusion of RRx-001, i.v. in DMSO; in sham animals or relative to animals with I/R; FIG. 1
Description: (§1) Animal experiments were performed in accordance with protocols approved. Male Wistar rats or subjects (about 8-9 weeks old) were purchased from Charles River (San Diego, California) and allowed about 1 week to acclimatize to the new environment prior to random allocation into four groups (n=8 per group). The groups included: a first group 106 (sham), a second group 108 (RRx-001), a third group 110 (RRx-001 I/R), and a fourth group 112 (I/R).
(§2) The first group 106 included sham subjects (e.g., no treatment). The subjects of the second group 108 were given about 5 mg/kg of RRx-001 prepared in dimethyl sulfoxide (DMSO) and administered to the subjects via intravenous administration. The subjects of the second group 108 were not subjected to ischemia. […]
(§3) Regarding the myocardial ischemia reperfusion, the subjects were anesthetized with isoflurane (5% induction and 2% maintenance in 30% oxygen) and placed on a thermal heating pad. […] The knot was removed, the chest was closed, and the hearts of the subjects were monitored for a time period of one hour during reperfusion. […]
FIG. 1 depicts a graph comparing acute changes in heart rate (HR) during reperfusion for various groups of Example 1, according to at least some embodiments disclosed herein. FIG. 1 includes an x-axis 102 associated with time (measured in minutes) and a y-axis 104 associated with HR (measured in beats per minute or “bpm”).

Male Wistar rats [2] = experiment: Hypotensive effects after RRx-001 treatment; type: in vivo, rat; settings: treatment after reperfused MI
Description: as §1
as §2, with “ischemia. The subjects of the third group 110 were administered about 0.5 mg/kg of RRx-001 prepared in DMSO via intravenous administration during reperfusion after ischemia. The subjects of the fourth group 112 were untreated, but subjected to ischemia and reperfusion.” for “ischemia.”
as §3

O=C(CBr)N1CC([N+](=O)[O-])([N+](=O)[O-])C1 [RRx-001, 2-bromo-1-(3,3-dinitroazetidin-1-yl)ethan-1-one]
acute changes in heart rate (HR) during reperfusion (Male Wistar rats [1]): did not result in any acute changes in HR
hypotensive effects (Male Wistar rats [2]): No hypotensive effects were observed
